Patent publication US7985773B2 (American Sterilizer Company, priority 2004, dated 2011)
Where “and” joins values, the source holds several entries; their conditions need not be identical. Identical values can stand only once.

Tested on: Serratia marcescens ATCC 14756
Test: Residual activity testing procedure on pigskin
Assay type: cell-based
Details: for Average Log Reduction: average of two series; for log reduction values and antimicrobial activity (in words): compositions of Table V, additive at 0.5 parts per 100 parts; for Log Value: log of colony forming units remaining; for Log Value / Log Reduction: single series; for antimicrobial activity (in words): additives of Table II in the Table I base; for antimicrobial activity (in words) / Average Series: FIG. 1; for Average Series: average log reduction of all four series
Description: The gram negative organism was grown for approximately 24 hours at 30° C. and then suspended in Butterfields Buffer to a count of 1×10^8. The pigskins were prepared according to the following standard of procedure. Pigskin hides are collected on the date of slaughter and processed on the same day by removing adipose tissue and thoroughly cleaning the hide. Both of these processes are accomplished by spraying both sides of the pig hide with a high pressure washer. No soap or detergents are used at any time during the processing of pig hides for laboratory use. After cleaning and de-fatting, pigskins are placed in water and frozen at the farm from which they were harvested. When required for laboratory testing, a representative procures the hides and thaws them for laboratory manipulation. In the laboratory, these hides are cut into manageable pieces with a scalpel and coarse hair removed with animal grooming clippers. Disposable razors are further employed to create a smooth surface without negatively affecting the skin surface. These pieces are then sterilized by Gamma irradiation and kept frozen until use in a study. Testing circles were then punched out of the pigskins and glued to a phenolic cap. The testing samples were placed in a 30° C. oven to equilibrate for at least 20 minutes. Each skin was treated with 150 μl of test product and rubbed for 30 seconds as a pair, skin to skin. The skins were allowed to dry for 30 seconds and then the test product was reapplied four times in the same manner. The skins were allowed to dry in a slightly opened hood for 15 minutes. After drying the skins were inoculated with 31 μl of the Serratia marcescens inoculum, as prepared above, rubbed for 15 seconds, and sampled after three minutes. To sample, a sterile 3.5 cm diameter cylinder is placed, lip side down, over the pigskin on the cap. Enough pressure is applied to the cylinder to prevent any leakage upon the addition of an appropriate volume of liquid sampling solution to the cylinder. The skin is then debrided, using a sterile policeman, for 30 seconds by rubbing the surface of the skin with the flat edge of the policeman with enough pressure to remove any microorganisms that might be on the surface. Two mL of the sampling solution are removed using a sterile pipet and are utilized for preparing serial dilutions and aerobic plate counts to establish the number of Colony Forming Units remaining.

[1] = additive at 0.5 parts by weight per 100 parts total composition in the Table I base, FIG. 2
[2] = additive at 0.5 parts by weight per 100 parts total composition in the Table I base
[3] = additive at the active % listed in Table III in the Table I base
[4] = additive at the active % listed in Table III in the Table I base, pigskin residual activity

Row | Compound | Average Log Reduction [1] | Log Value [2] | Log Reduction [2] | Average Series [3] | also measured
1 | CCCCCCCCCCCCCCCCCCCCCC[N+](C)(C)Cc1ccccc1.[Cl-] [Behenalkonium chloride, Behenalkonium Chloride] | 4.41 | 1.60 and 1.78 | 4.50 and 4.32 |  | log reduction values and antimicrobial activity (in words): excellent log reduction values
2 | CCCCCCCCCCCCCCCCCCCCCC[N+](C)(C)C.[Cl-] [Behentrimonium chloride] | 0.33 | 5.78 and 5.76 | 0.32 and 0.34 |  | 
3 | CCCCCCCCCCCCCCCCCCCCCC[N+](C)(C)C.COS(=O)(=O)[O-] [Behentrimonium methosulfate] | 5.25 |  |  | 5.39 | antimicrobial activity (in words): enhanced antimicrobial activity; log reduction values and antimicrobial activity (in words): excellent log reduction values
4 | CC(C)(C)CC(C)(C)c1ccc(OCCOCC[N+](C)(C)Cc2ccccc2)cc1 [Benzethonium Chloride, Benzethonium chloride] |  |  |  | 0.17 | 
5 | CCCCCCCCCCCCCCCC[N+](C)(C)C.[Cl-] [Cetrimonium chloride] | 1.24 | 4.87 and 4.85 | 1.23 and 1.25 |  | 
6 | C[N+](C)(C)CCCNC(=O)C=Cc1ccccc1.[Cl-] [Cinnamidopropyl trimethylammonium chloride] | 0.05 | 5.98 and 6.12 | 0.12 and −0.02 |  | 
7 | CCCCCCCCCC(=O)OCC(O)CO (stereo not shown) [Glyceryl caprate] |  | 5.17 and 5.19 |  |  | 
8 | CCCCCCCCCCCC(=O)OCC(O)CO (stereo not shown) [Glyceryl monolaurate] |  |  |  | −0.21 | 
9 | CCCCCCCCCCCCCCCCCCCCCC(=O)NCCC[N+](C)(C)CCO.[Cl-] [Hydroxyethyl behenamidopropyldimonium chloride] | 0.63 |  |  |  | 
10 | COC(=O)c1ccc(O)cc1 [Methyl paraben] |  |  |  | 0.03 | 
11 | CCCCCCCC/C=C\CCCCCCCC[N+](C)(C)Cc1ccccc1.[Cl-] [Olealkonium chloride, Olealkonium Chloride] | 0.31 | 5.76 and 5.81 | 0.34 and 0.29 |  | 
12 | Cc1cc(O)cc(C)c1Cl [PCMX] |  |  |  | 0.16 | Average Log Reduction [4]: 0.06 and 0.26
13 | OCCOc1ccccc1 [Phenoxyethanol, Phenoxyethanol (ethylene glycol phenyl ether)] |  |  |  | 3.39 | antimicrobial activity (in words): enhanced antimicrobial activity
14 | CCCOC(=O)c1ccc(O)cc1 [Propyl paraben] |  |  |  | 0.40 | 
15 | CCCCCCCCCCCCCCCCCC[N+](C)(C)Cc1ccccc1.[Cl-] [Stearalkonium chloride] | 0.25 | 5.93 and 5.77 | 0.17 and 0.33 |  | 
16 | CC(O)C(=O)O.CCCCCCCCCCCCCCCCCC(=O)NCCCN(C)C [Stearamidopropyl dimethylamine lactate] |  | 6.22 and 6.05 |  |  | 
17 | Oc1cc(Cl)ccc1Oc1ccc(Cl)cc1Cl [Triclosan] |  |  |  | −0.04 | 
18 | Babbassuamidopropalkonium Chloride | 0.35 | 5.82 and 5.68 | 0.28 and 0.42 |  | 
19 | Cocoamidopropyl PG dimonium chloride |  |  |  | −0.04 | Average Log Reduction [4]: −0.13 and 0.04
20 | IPEG-3 Dioleylamidoethylmonium methosulfate | 0.27 | 5.84 and 5.81 | 0.26 and 0.29 |  | 
21 | Isostearyamidopropyl morpholine lactate | −0.09 | 6.17 and 6.20 | −0.07 and −0.10 |  | 
22 | Quaternium 26 | −0.07 | 6.20 and 6.13 | −0.11 and −0.03 |  | 
23 | Sodium Coco PG-Dimonium chloride phosphate | 0.40 | 5.69 and 5.71 | 0.41 and 0.39 |  | 
